Test results taken from patent US6596719B1 (Actelio Pharmaceuticals Ltd., priority 1999, dated 2003).
Like-named read-outs stand apart in the source and are kept apart here.

Experiments:
[1] = target: T1, human recombinant ETA receptors (Homo sapiens, UniProt P25101); assay: Inhibition of endothelin binding to membranes from CHO cells carrying human ET receptors (ETA)
T1 construct: expressed in transfected cells; host or cells: CHO cells (microsomal membranes)
T1 sequence (P25101 21-427): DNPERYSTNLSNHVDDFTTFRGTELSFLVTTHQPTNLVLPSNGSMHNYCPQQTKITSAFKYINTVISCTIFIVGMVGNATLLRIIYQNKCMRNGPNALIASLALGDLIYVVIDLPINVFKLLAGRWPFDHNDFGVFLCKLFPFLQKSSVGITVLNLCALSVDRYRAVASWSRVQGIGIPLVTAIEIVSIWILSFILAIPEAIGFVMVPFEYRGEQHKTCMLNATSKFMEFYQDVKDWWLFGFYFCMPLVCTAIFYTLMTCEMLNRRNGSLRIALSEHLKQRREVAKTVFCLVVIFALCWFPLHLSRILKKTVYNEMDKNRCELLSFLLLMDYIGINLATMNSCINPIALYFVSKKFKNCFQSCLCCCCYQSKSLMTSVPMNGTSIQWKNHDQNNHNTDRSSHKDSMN

[2] = target: T2, human recombinant ETB receptors (Homo sapiens, UniProt P24530); assay: Inhibition of endothelin binding to membranes from CHO cells carrying human ET receptors (ETB)
T2 construct: expressed in transfected cells; host or cells: CHO cells (microsomal membranes)
T2 sequence (P24530 27-442): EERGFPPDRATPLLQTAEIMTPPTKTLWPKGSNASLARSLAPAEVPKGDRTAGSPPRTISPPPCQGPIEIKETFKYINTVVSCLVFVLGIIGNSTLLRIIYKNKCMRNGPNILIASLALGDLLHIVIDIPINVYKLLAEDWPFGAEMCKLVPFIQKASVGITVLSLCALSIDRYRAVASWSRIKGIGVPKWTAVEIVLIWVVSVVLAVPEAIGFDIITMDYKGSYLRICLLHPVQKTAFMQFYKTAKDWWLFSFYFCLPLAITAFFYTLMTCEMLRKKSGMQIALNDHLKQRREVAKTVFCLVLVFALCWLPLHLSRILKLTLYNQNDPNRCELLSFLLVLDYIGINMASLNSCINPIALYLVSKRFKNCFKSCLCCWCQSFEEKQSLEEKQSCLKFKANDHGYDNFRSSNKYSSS
Procedure: 1) Inhibition of Endothelin Binding to Membranes from CHO Cells Carrying Human ET Receptors:
For competition binding studies, membranes of CHO cells expressing human recombinant ETA or ETB receptors were used. Microsomal membranes from recombinant CHO cells were prepared and the binding assay made as previously described (Breu V., et al, FEBS Lett 1993; 334:210).
The assay was performed in 200 uL 50 mM Tris/HCl buffer, pH 7.4, including 25 mM MnCl2, 1 mM EDTA and 0.5% (w/v) BSA in polypropylene microtiter plates. […]. […] After two h, the membranes were filtered on, filterplates containing GF/C filters (Unifilterplates from Canberra Packard S. A. Zürich, Switzerland). To each well, 50 uL of scintillation cocktail was added (MicroScint 20, Canberra Packard S. A. Zürich, Switzerland) and the filter plates counted in a microplate counter (TopCount, Canberra Packard S. A. Zürich, Switzerland).
All the test compounds were dissolved, diluted and added in DMSO. […] […].

ETA receptors = target: T3, ETA receptors (Rattus norvegicus, UniProt P26684); assay: Inhibition of endothelin-1-induced contractions on isolated rat aortic rings; settings: for pA2 value ETA: rat aortic rings, contraction induced by endothelin-1, 10 min incubation
T3 sequence (P26684 21-426): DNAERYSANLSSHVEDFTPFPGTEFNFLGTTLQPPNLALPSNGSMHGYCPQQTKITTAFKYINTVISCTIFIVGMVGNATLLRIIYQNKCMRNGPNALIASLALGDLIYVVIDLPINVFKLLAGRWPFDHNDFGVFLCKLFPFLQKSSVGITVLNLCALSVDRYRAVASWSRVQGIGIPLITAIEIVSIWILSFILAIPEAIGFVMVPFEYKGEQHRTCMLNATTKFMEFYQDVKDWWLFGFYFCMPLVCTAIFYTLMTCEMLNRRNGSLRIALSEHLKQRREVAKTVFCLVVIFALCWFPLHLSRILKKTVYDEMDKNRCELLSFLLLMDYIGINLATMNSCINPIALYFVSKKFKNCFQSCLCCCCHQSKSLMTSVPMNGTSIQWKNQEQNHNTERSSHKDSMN

ETB receptors = target: T4, ETB receptors (Rattus norvegicus, UniProt P21451); assay: Inhibition of sarafotoxin S6c-induced contractions on isolated rat tracheal rings; settings: for pA2 value ETB: rat tracheal rings, contraction induced by sarafotoxin S6c, 10 min incubation
T4 sequence (P21451 27-442): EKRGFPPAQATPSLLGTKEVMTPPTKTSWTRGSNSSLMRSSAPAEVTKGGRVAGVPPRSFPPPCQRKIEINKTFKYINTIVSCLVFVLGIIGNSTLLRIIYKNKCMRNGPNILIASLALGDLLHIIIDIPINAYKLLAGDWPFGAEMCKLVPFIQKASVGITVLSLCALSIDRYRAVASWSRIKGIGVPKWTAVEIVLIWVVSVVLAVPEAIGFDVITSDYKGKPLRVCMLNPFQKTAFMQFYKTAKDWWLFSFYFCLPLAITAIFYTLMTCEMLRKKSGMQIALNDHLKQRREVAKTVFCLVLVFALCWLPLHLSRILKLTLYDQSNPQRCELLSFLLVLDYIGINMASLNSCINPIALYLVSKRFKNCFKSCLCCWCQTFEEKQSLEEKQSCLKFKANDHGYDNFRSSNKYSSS

[3] = membranes of CHO cells expressing human recombinant ETA receptors, 8 pM [125I]ET-1, 2 h at 20° C.

COc1ccccc1Oc1c(NS(=O)(=O)c2ccc(C(C)(C)C)cc2)nc(-c2ncccn2)nc1OCCNS(=O)(=O)c1cccs1 [Example 7, p-tert.-butyl-N-[6-(ethoxy-2-(2-thiophenesulfonamido))-5-(o-methoxyphenoxy)-2-(2-pyrimidinyl)-4-pyrimidinyl]benzene-sulfonamide]
IC50 [1, 3]: 63.6 nM
IC50 [2]: 15.8 nM
pA2 value ETA (ETA receptors): 6.08
pA2 value ETB (ETB receptors): 7.15

COc1ccccc1Oc1c(NS(=O)(=O)c2ccc(C(C)C)cn2)nc(-c2ccncc2)nc1OCCNS(=O)(=O)C(C)C [Example 10, 5-i.-propyl-N-[6-(ethoxy-2-(2-propanesulfonamido))-5-(o-methoxyphenoxy)-2-(4-pyridyl)-4-pyrimidinyl]pyridine-2-sulfonamide]
IC50 [1]: 67.2 nM
IC50 [2]: 193 nM
Kb (ETA receptors): 186 nM
Kb (ETB receptors): 1260 nM

COc1ccccc1Oc1c(NS(=O)(=O)c2ccc(C(C)C)cn2)nc(-c2cc(OC)c(OC)c(OC)c2)nc1OCCNS(=O)(=O)c1ccc(C)cc1 [Example 11, 5-i.-propyl-N-[6-(ethoxy-2-(4-methylbenzenesulfonamido))-5-(o-methoxyphenoxy)-2-(3,4,5-trimethoxyphenyl)-4-pyrimidinyl]pyridine-2-sulfonamide]
IC50 [1, 3]: 5110 nM
IC50 [2]: 4.3 nM
pA2 value ETB (ETB receptors): 7.46

COc1ccccc1Oc1c(NS(=O)(=O)c2ccc(C(C)C)cn2)nc(-c2ccncc2)nc1OCCNS(=O)(=O)c1ccc(C)cc1 [Example 12]
IC50 [1]: 2120 nM
IC50 [2]: 73.3 nM
Kb (ETA receptors): 851 nM
Kb (ETB receptors): 513 nM

COc1ccccc1Oc1c(NS(=O)(=O)c2ccc(C(C)C)cn2)nc(-c2cc(OC)c(OC)c(OC)c2)nc1OCCNS(=O)(=O)c1cccs1 [Example 15, 5-i.-propyl-N-[6-(ethoxy-2-thiophenesulfonamido)-5-(o-methoxyphenoxy)-2-(3,4,5-trimethoxyphenyl)-4-pyrimidinyl]pyridine-2-sulfonamide]
IC50 [1, 3]: 1320 nM
IC50 [2]: 7.3 nM
Kb (ETB receptors): 40.7 nM

CCCS(=O)(=O)NCCOc1nc(-c2cc(OC)c(OC)c(OC)c2)nc(NS(=O)(=O)c2ccc(C(C)C)cn2)c1Oc1ccccc1OC [Example 16, 5-i.-propyl-N-[6-(ethoxy-2-(1-propanesulfonamido))-5-(o-methoxyphenoxy)-2-(3,4,5-trimethoxyphenyl)-4-pyrimidinyl]pyridine-2-sulfonamide]
IC50 [1, 3]: 261 nM
IC50 [2]: 24.5 nM
Kb (ETA receptors): > 3160 nM
Kb (ETB receptors): 34.7 nM

CCS(=O)(=O)NCCOc1nc(C(F)(F)F)nc(NS(=O)(=O)c2ccc(C(C)C)cn2)c1Oc1ccccc1OC [Example 55, 5-i.-propyl-N-[6-(2-(ethanesulfonylamino)-ethoxy)-5-(o-methoxyphenoxy)-2-trifluoromethyl-4-pyrimidinyl]pyridine-2-sulfonamide]
pA2 value ETA (ETA receptors): 6.2
pA2 value ETB (ETB receptors): 6.3

CCCS(=O)(=O)NCCOc1nc(N2CCOCC2)nc(NS(=O)(=O)c2ccc(C)cn2)c1Oc1ccccc1OC [Example 59, 5-methyl-N-[6-(2-(1-propanesulfonylamino)-ethoxy)-5-(o-methoxyphenoxy)-2-(N-morpholino)-4-pyrimidinyl]-2-pyridine sulfonamide]
IC50 [1]: 103 nM
IC50 [2]: 189 nM
pA2 value ETA (ETA receptors): 6.61
pA2 value ETB (ETB receptors): 5.58

COc1ccccc1Oc1c(NS(=O)(=O)c2ccc(C(C)C)cn2)nc(N2CCOCC2)nc1OCCNS(=O)(=O)c1ccc(C)cc1 [Example 60, 5-isopropyl-N-[6-(2-(4-methylbenzenesulfonylamino)-ethoxy)-5-(o-methoxyphenoxy)-2-(N-morpholino)-4-pyrimidinyl]-2-pyridine sulfonamide]
IC50 [1]: 1440 nM
IC50 [2]: 16 nM
pA2 value ETB (ETB receptors): 7.3

CCS(=O)(=O)NCCOc1nc(N2CCOCC2)nc(NS(=O)(=O)c2ccc(C(C)C)cn2)c1Oc1ccccc1OC [Example 61, 5-isopropyl-N-[6-(2-(ethanesulfonylamino)-ethoxy)-5-(o-methoxyphenoxy)-2-(N-morpholino)-4-pyrimidinyl]-2-pyridine sulfonamide]
IC50 [1]: 92 nM
IC50 [2]: 183 nM
pA2 value ETA (ETA receptors): 7.02
pA2 value ETB (ETB receptors): 6.36

CCS(=O)(=O)NCCOc1nc(-c2ncccn2)nc(NS(=O)(=O)c2ccc(C(C)C)cn2)c1Oc1ccccc1OC [Example 70, 5-isopropyl-N-[6-(2-(ethanesulfonylamino)-ethoxy)-5-(o-methoxyphenoxy)-2-(2-pyrimidinyl)-4-pyrimidinyl]-2-pyridine sulfonamide]
IC50 [1]: 282 nM
IC50 [2]: 2070 nM
Kb (ETA receptors): 891 nM

CCS(=O)(=O)NCCCOc1nc(C2CC2)nc(NS(=O)(=O)c2ccc(C(C)(C)C)cc2)c1Oc1ccccc1OC [Example 87]
IC50 [1, 3]: 48.1 nM
IC50 ([2]; membranes of CHO cells expressing human recombinant ETB receptors, 8 pM [125I]ET-1, 2 h at 20° C.): 33.1 nM
pA2 value ETA (ETA receptors): 6.52

COc1ccccc1Oc1c(NS(=O)(=O)c2ccc(C(C)(C)C)cc2)nc(C2CC2)nc1OCCCNS(=O)(=O)c1cccs1 [Example 88, 4-tert.-butyl-N-[6-(3-(2-thiophenesulfonylamino)-propoxy)-5-(o-methoxyphenoxy)-2-cyclopropyl-4-pyrimidinyl]-benzene-sulfonamide]
pA2 value ETA (ETA receptors): 6.16
pA2 value ETB (ETB receptors): 7.95
